Source: patent US8993562B2, “Imidazo[1,2-b]pyridazines, processes, uses, intermediates and compositions” (Ferrer Internacional, S.A., priority 2006, dated 2015)

Legend:
[1] = system: α1-GABAA receptor; assay: Ligand-binding assay, radiolabeled flumazenil competition, cerebellum membranes; conditions: rat cerebellum membranes, radiolabeled flumazenil 1 nM
Protocol: a) Ligand-binding Assays. Determination of the Affinity of Test Compounds for α1- and α2-GABAA Receptor
Male Sprague-Dawley rats weighing 200-250 g at the time of experiment were used. After decapitation of the animal, the cerebellum (tissue that mostly contains α1-GABAA receptor) and spinal cord (tissue that mostly contains α2-GABAA receptor) were removed. The membranes were prepared according to the method by J. Lameh et al. (Prog. Neuro-Psychopharmacol. Biol. Psychiatry, 24, 979-991, 2000) and H. Noguchi et al. (Eur J Pharm, 434, 21-28, 2002) with slight modifications. Once the tissues weighed, they were suspended in 50 mM Tris.HCl (pH 7.4), 1:40 (v/v), or sucrose 0.32 M in the case of spinal cord, homogenized and then centrifuged at 20000 g for 10 minutes at 7° C. The resulting pellet was resuspended under the same conditions and centrifuged again. The pellet was finally resuspended on a minimum volume and kept at −80° C. overnight. A slight modification was used in the case of spinal cord at the first centrifugation step. Centrifugation speed was at 1000 g and the supernatant was collected instead of discarded as in cerebellum. Then, supernatant was centrifuged at 20000 g and resuspended twice more under the same conditions described above for cerebellum. On the next day, the process was repeated until the final pellet was resuspended at a ratio of 1:10 (v/v) in the case of cerebellum and at a ratio of 1:5 (v/v) in the case of spinal cord.
Affinity was determined by competitive tests using radiolabeled flumazenil as ligand. The tests were performed according to the methods described by S. Arbilla et al. (Eur. J. Pharmacol., 130, 257-263, 1986); and Y. Wu et al. (Eur. J. Pharmacol., 278, 125-132, 1995) using 96-well microtiter plates. The membranes containing the study receptors, flumazenil (radiolabeling at a final concentration of 1 nM) and ascending concentrations of test compounds (in a total volume of 230 μl in 50 mM [pH 7.4] Tris.HCl buffer) were incubated. Simultaneously, the membranes were only incubated with the radiolabeled flumazenil (total binding, 100%) and in the presence of an elevated concentration of unradiolabeled flumazenil (non-specific binding, % estimation of radiolabeled ligand). The reactions started on adding the radiolabeled ligand followed by incubation for 60 minutes at 4° C. At the end of the incubation period, 200 μl of reaction were transferred to a multiscreen plate (Millipore) and filtered using a vacuum manifold and then washed three times with cold test buffer. The multiscreen plates were equipped with a GF/B filter that retained the membranes containing the receptors and the radiolabeled ligand which had been bound to the receptors. After washing, the plates were left till dry. Once dried, scintillation liquid was added and left under stirring overnight. The next day the plates were counted using a Perkin-Elmer Microbeta scintillation counter.
For analysis of the results the percentage of specific binding for every concentration of test compound was calculated as follows: specific binding−(X−N/T−N)×100 where, X: amount of bound ligand for every concentration of compound. T: total binding, maximum amount bound to the radiolabeled ligand. N: non-specific binding, amount of radiolabeled ligand bound in a non-specific way irrespective of the receptor used.
Every concentrations of compound were tested in triplicate and their mean values were used to determine the experimental values of % specific binding versus the concentration of compound. Affinity data are expressed as % inhibition at 10^−5M and 10^−7M concentrations.

[2] = system: male CD1 mice; assay: In vivo predictive sedation-hypnosis test (traveled distance); conditions: Mus musculus, ip, 0.5 h, traveled distance over 30 min versus control, read-out: % inhib motor activity; for inhibition in vivo at 98 µmol/kg: 98.0 μmol/kg intraperitoneal; for inhibition in vivo at 0.98 µmol/kg: 0.98 μmol/kg intraperitoneal
Protocol: b) In Vivo Determination of Predictive Sedative-hypnotic Action
The in vivo effects of these compounds were assessed by a predictive sedation-hypnosis test in mice (D. J. Sanger et al., Eur. J. Pharmacol., 313, 35-42, 1996; and G. Griebel et al., Psychopharmacology, 146, 205-213, 1999).
Groups of 5-8 male CD1 mice, weighing 22-26 g at the time of test, were used. […] Compounds were suspended in 0.25% agar with one drop of Tween in a volume of 10 mL/kg. Control animals were given the vehicle alone. Using a Smart System (Panlab, S. L., Spain) the traveled distance in cm is recorded for each mouse at 5-minutes intervals during a period of 30 minutes after dosing. The inhibition percentage of traveled distance of treated animals versus control animals (the first 5 minutes were discarded) was calculated.

SMILES | % inhib 10^−5 M, affinity for the α1-subunit of the GABAA receptor [1] [%] | % inhib 10^−7 M, affinity for the α1-subunit of the GABAA receptor [1] [%] | inhibition in vivo at 98 µmol/kg [2] [%] | inhibition in vivo at 0.98 µmol/kg [2] [%]
COc1ccc(-c2nc3ccc(OC)nn3c2CC(=O)N2CCCCC2)cc1 [Example 78, 2-[6-Methoxy-2-(4-methoxy-phenyl)-imidazo[1,2-b]pyridazin-3-yl]-1-piperidin-1-yl-ethanone] | 98.3 | 26.5 | 91.1 | 
Cc1ccc(-c2nc3ccc(C)nn3c2CC(=O)NN2CCOCC2)cc1 [Example 105, 2-(6-Methyl-2-p-tolyl-imidazo[1,2-b]pyridazin-3-yl)-N-morpholin-4-yl-acetamide] | 98.8 | 56.0 | 94 | 
CCOc1ccc2nc(-c3ccc(Br)cc3)c(CC(=O)N3CCOCC3)n2n1 [Example 9, 2-[2-(4-Bromo-phenyl)-6-ethoxy-imidazo[1,2-b]pyridazin-3-yl]-1-morpholin-4-yl-ethanone] |  |  | 93.8 | 19.9
CCN(CC)C(=O)Cc1c(-c2ccc(C)cc2)nc2ccc(Cl)nn12 [Example 1, 2-(6-Chloro-2-p-tolyl-imidazo[1,2-b]pyridazin-3-yl)-N,N-diethyl-acetamide] |  |  | 94.7 | 27.6
CCCN(CCC)C(=O)Cc1c(-c2ccc(Br)cc2)nc2ccc(C)nn12 [Example 17, 2-[2-(4-Bromo-phenyl)-6-methyl-imidazo[1,2-b]pyridazin-3-yl]-N,N-dipropyl-acetamide] |  |  | 93.1 | 9.91
Cc1ccc2nc(-c3ccc(Br)cc3)c(CC(=O)N3CCOCC3)n2n1 [Example 14, 2-[2-(4-Bromo-phenyl)-6-methyl-imidazo[1,2-b]pyridazin-3-yl]-1-morpholin-4-yl-ethanone] |  |  | 95.6 | 4.77
CCOc1ccc2nc(-c3ccc(Cl)cc3)c(CC(=O)N(CC)CC)n2n1 [Example 20, 2-[2-(4-Chloro-phenyl)-6-ethoxy-imidazo[1,2-b]pyridazin-3-yl]-N,N-diethyl-acetamide] |  |  | 91.5 | 
CCCCN(CCCC)C(=O)Cc1c(-c2ccc(OC)cc2)nc2ccc(OC)nn12 [Example 77, N,N-Dibutyl-2-[6-methoxy-2-(4-methoxy-phenyl)-imidazo[1,2-b]pyridazin-3-yl]-acetamide] |  |  | 89.3 | 
Cc1ccc2nc(-c3ccc(Br)cc3)c(CC(=O)NN)n2n1 [Example 100, [2-(4-Bromo-phenyl)-6-methyl-imidazo[1,2-b]pyridazin-3-yl]-acetic acid hydrazide] |  |  | 93.7 | 
CCOc1ccc2nc(-c3ccc(Br)cc3)c(CC(=O)N3CCCCC3)n2n1 [Example 10, 2-[2-(4-Bromo-phenyl)-6-ethoxy-imidazo[1,2-b]pyridazin-3-yl]-1-piperidin-1-yl-ethanone] |  |  | 93.5 | 29.5
Cc1ccc2nc(-c3ccc(Cl)cc3)c(CC(=O)NN)n2n1 [Example 102, [2-(4-Chloro-phenyl)-6-methyl-imidazo[1,2-b]pyridazin-3-yl]-acetic acid hydrazide] |  |  | 85.5 | 
CCCCN(CCCC)C(=O)Cc1c(-c2ccc(F)cc2)nc2ccc(C)nn12 [Example 40, N,N-Dibutyl-2-[2-(4-fluoro-phenyl)-6-methyl-imidazo[1,2-b]pyridazin-3-yl]-acetamide] |  |  | 91.8 | 
CCCCN(CCCC)C(=O)Cc1c(-c2ccc(Br)cc2)nc2ccc(OCC)nn12 [Example 11, 2-[2-(4-Bromo-phenyl)-6-ethoxy-imidazo[1,2-b]pyridazin-3-yl]-N,N-dibutyl-acetamide] |  |  | 79.8 | 15.3
CCCN(CCOC(C)=O)C(=O)Cc1c(-c2ccc(C)cc2)nc2ccc(C)nn12 [Example 80, Acetic acid 2-{[2-(6-methyl-2-p-tolyl-imidazo[1,2-b]pyridazin-3-yl)-acetyl]-propyl-amino}-ethyl ester] |  |  | 94.4 | 
Cc1ccc(-c2nc3ccc(Cl)nn3c2CC(=O)N2CCCCC2)cc1 [Example 4, 2-(6-Chloro-2-p-tolyl-imidazo[1,2-b]pyridazin-3-yl)-1-piperidin-1-yl-ethanone] |  |  | 94.7 | 38.4
CCCCN(CCCC)C(=O)Cc1c(-c2ccc(OC)cc2)nc2ccc(C)nn12 [Example 72, N,N-Dibutyl-2-[2-(4-methoxy-phenyl)-6-methyl-imidazo[1,2-b]pyridazin-3-yl]-acetamide] |  |  | 93.3 | 
CCOc1ccc2nc(-c3ccc(Br)cc3)c(CC(=O)N(CC)CC)n2n1 [Example 13, 2-[2-(4-Bromo-phenyl)-6-ethoxy-imidazo[1,2-b]pyridazin-3-yl]-N,N-diethyl-acetamide] |  |  | 92.1 | 15.1
Cc1ccc(-c2nc3ccc(Cl)nn3c2CC(=O)N2CCCC2)cc1 [Example 6, 2-(6-Chloro-2-p-tolyl-imidazo[1,2-b]pyridazin-3-yl)-1-pyrrolidin-1-yl-ethanone] |  |  | 96.9 | 51.9
CCCCN(CCCC)C(=O)Cc1c(-c2ccc(Cl)cc2)nc2ccc(C)nn12 [Example 22, N,N-Dibutyl-2-[2-(4-chloro-phenyl)-6-methyl-imidazo[1,2-b]pyridazin-3-yl]-acetamide] |  |  | 88 | 22.2
CCCCN(CCCC)C(=O)Cc1c(-c2ccc(Cl)cc2)nc2ccc(OCC)nn12 [Example 24, N,N-Dibutyl-2-[2-(4-chloro-phenyl)-6-ethoxy-imidazo[1,2-b]pyridazin-3-yl]-acetamide] |  |  | 86.5 | 3.65
Cc1ccc(-c2nc3ccc(Cl)nn3c2CC(=O)N2CCOCC2)cc1 [Example 5, 2-(6-Chloro-2-p-tolyl-imidazo[1,2-b]pyridazin-3-yl)-1-morpholin-4-yl-ethanone] |  |  | 93.7 | 41.1
CCCN(CCC)C(=O)Cc1c(-c2ccc(Br)cc2)nc2ccc(OCC)nn12 [Example 12, 2-[2-(4-Bromo-phenyl)-6-ethoxy-imidazo[1,2-b]pyridazin-3-yl]-N,N-dipropyl-acetamide] |  |  | 83.4 | 15.1
CCCCN(CCCC)C(=O)Cc1c(-c2ccc(F)cc2)nc2ccc(OC)nn12 [Example 42, N,N-Dibutyl-2-[2-(4-fluoro-phenyl)-6-methoxy-imidazo[1,2-b]pyridazin-3-yl]-acetamide] |  |  | 91 | 
Cc1ccc(-c2nc3ccc(C)nn3c2CC(=O)N2CC(C)CC(C)C2)cc1 (stereo not shown) [Example 81, 1-(3,5-Dimethyl-piperidin-1-yl)-2-(6-methyl-2-p-tolyl-imidazo[1,2-b]pyridazin-3-yl)-ethanone] |  |  | 90.8 | 
CCCN(CCC)C(=O)Cc1c(-c2ccc(Cl)cc2)nc2ccc(OCC)nn12 [Example 23, 2-[2-(4-Chloro-phenyl)-6-ethoxy-imidazo[1,2-b]pyridazin-3-yl]-N,N-dipropyl-acetamide] |  |  | 91.7 | 12.4
